Here are results for two compounds from paper PMC6693643 (ACS chemical biology, 2017).

In assay [1] the target is T1, MtuATP-PRT (Mycobacterium tuberculosis, UniProt P9WMN1). Put plainly: competitive kinetic isotope effects, scintillation counting. Type of assay: biochemical. To be noted: reverse reaction; co-substrate PRATP; alternative to pyrophosphate.
The target of assay [2] is T1, MtuATP-PRT.

T1 sequence (P9WMN1 whole entry): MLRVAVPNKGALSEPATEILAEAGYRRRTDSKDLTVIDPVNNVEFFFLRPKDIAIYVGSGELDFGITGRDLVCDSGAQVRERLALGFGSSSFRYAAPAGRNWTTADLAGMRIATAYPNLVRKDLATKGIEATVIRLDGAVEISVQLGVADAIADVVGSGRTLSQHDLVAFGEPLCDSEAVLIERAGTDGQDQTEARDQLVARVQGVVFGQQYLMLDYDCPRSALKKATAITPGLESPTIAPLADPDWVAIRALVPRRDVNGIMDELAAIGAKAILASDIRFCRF

Take `O=C(O)CP(=O)(O)O` [phosphonoacetic acid]: in assay [1], the “competitive kinetic isotope effects, scintillation counting” value is on record as “the ATP-PRT catalyzed reaction was studied using phosphonoacetic acid (PA) as an alternative”. `Nc1ncnc2c1ncn2[C@@H]1O[C@H](COP(=O)(O)OP(=O)(O)OP(=O)(O)O)[C@@H](O)[C@H]1O` [ATP]: in assay [2], the “X-ray crystal structure (co-crystallisation)” value is reported as “a structure with ATP bound to MtuATP-PRT (PDB: 5U99) was obtained”.
